Reference: the NIST ThermoML archive (doi:10.1021/je050416y)

Assay: xn = mol fraction of the nth substance listed
Conditions: 101 kPa, Liquid; for mass density: Vibrating tube method

CC(C)CCO [3-methylbutan-1-ol] + CCO
Conditions | kinematic viscosity [m2/s] | mass density [kg/m3]
293.15 K, x1 = 0.0268 | – | 790.5
293.15 K, x1 = 0.0549 | – | 791.3
293.15 K, x1 = 0.0845 | – | 792.1
293.15 K, x1 = 0.0915 | 1.55e-06 | –
293.15 K, x1 = 0.1156 | – | 792.9
293.15 K, x1 = 0.1484 | – | 793.8
293.15 K, x1 = 0.1753 | 1.61e-06 | –
293.15 K, x1 = 0.183 | – | 794.7
293.15 K, x1 = 0.2524 | 1.68e-06 | –
293.15 K, x1 = 0.2584 | – | 796.6
293.15 K, x1 = 0.3235 | 1.75e-06 | –
293.15 K, x1 = 0.3433 | – | 798.5
293.15 K, x1 = 0.3894 | 1.83e-06 | –
293.15 K, x1 = 0.4395 | – | 800.4
293.15 K, x1 = 0.4505 | 1.93e-06 | –
293.15 K, x1 = 0.5495 | – | 802.4
293.15 K, x1 = 0.5605 | 2.19e-06 | –
293.15 K, x1 = 0.6567 | 2.51e-06 | –
293.15 K, x1 = 0.6765 | – | 804.3
293.15 K, x1 = 0.7416 | 2.89e-06 | –
293.15 K, x1 = 0.817 | 3.31e-06 | –
293.15 K, x1 = 0.8247 | – | 806.3
293.15 K, x1 = 0.8844 | 3.8e-06 | –
293.15 K, x1 = 0.9451 | 4.35e-06 | –
293.15 K, x1 = 1 | 5e-06 | 808.3
298.15 K, x1 = 0.0268 | – | 786.2
298.15 K, x1 = 0.0549 | – | 787
298.15 K, x1 = 0.0845 | – | 787.9
298.15 K, x1 = 0.0915 | 1.42e-06 | –
298.15 K, x1 = 0.1156 | – | 788.8
298.15 K, x1 = 0.1484 | – | 789.7
298.15 K, x1 = 0.1753 | 1.48e-06 | –
298.15 K, x1 = 0.183 | – | 790.6
298.15 K, x1 = 0.2524 | 1.54e-06 | –
298.15 K, x1 = 0.2584 | – | 792.5
298.15 K, x1 = 0.3235 | 1.61e-06 | –
298.15 K, x1 = 0.3433 | – | 794.5
298.15 K, x1 = 0.3894 | 1.69e-06 | –
298.15 K, x1 = 0.4395 | – | 796.5
298.15 K, x1 = 0.4505 | 1.78e-06 | –
298.15 K, x1 = 0.5495 | – | 798.5
298.15 K, x1 = 0.5605 | 2.01e-06 | –
298.15 K, x1 = 0.6567 | 2.28e-06 | –
298.15 K, x1 = 0.6765 | – | 800.5
298.15 K, x1 = 0.7416 | 2.6e-06 | –
298.15 K, x1 = 0.817 | 2.96e-06 | –
298.15 K, x1 = 0.8247 | – | 802.6
298.15 K, x1 = 0.8844 | 3.37e-06 | –
298.15 K, x1 = 0.9451 | 3.84e-06 | –
298.15 K, x1 = 1 | 4.35e-06 | 804.6
303.15 K, x1 = 0.0268 | – | 781.8
303.15 K, x1 = 0.0549 | – | 782.7
303.15 K, x1 = 0.0845 | – | 783.7
303.15 K, x1 = 0.0915 | 1.27e-06 | –
303.15 K, x1 = 0.1156 | – | 784.6
303.15 K, x1 = 0.1484 | – | 785.5
303.15 K, x1 = 0.1753 | 1.32e-06 | –
303.15 K, x1 = 0.183 | – | 786.5
303.15 K, x1 = 0.2524 | 1.38e-06 | –
303.15 K, x1 = 0.2584 | – | 788.5
303.15 K, x1 = 0.3235 | 1.45e-06 | –
303.15 K, x1 = 0.3433 | – | 790.5
303.15 K, x1 = 0.3894 | 1.52e-06 | –
303.15 K, x1 = 0.4395 | – | 792.5
303.15 K, x1 = 0.4505 | 1.61e-06 | –
303.15 K, x1 = 0.5495 | – | 794.6
303.15 K, x1 = 0.5605 | 1.81e-06 | –
303.15 K, x1 = 0.6567 | 2.05e-06 | –
303.15 K, x1 = 0.6765 | – | 796.7
303.15 K, x1 = 0.7416 | 2.33e-06 | –
303.15 K, x1 = 0.817 | 2.64e-06 | –
303.15 K, x1 = 0.8247 | – | 798.7
303.15 K, x1 = 0.8844 | 2.99e-06 | –
303.15 K, x1 = 0.9451 | 3.38e-06 | –
303.15 K, x1 = 1 | 3.81e-06 | 800.8
308.15 K, x1 = 0.0268 | – | 777.5
308.15 K, x1 = 0.0549 | – | 778.4
308.15 K, x1 = 0.0845 | – | 779.4
308.15 K, x1 = 0.0915 | 1.17e-06 | –
308.15 K, x1 = 0.1156 | – | 780.4
308.15 K, x1 = 0.1484 | – | 781.4
308.15 K, x1 = 0.1753 | 1.22e-06 | –
308.15 K, x1 = 0.183 | – | 782.4
308.15 K, x1 = 0.2524 | 1.27e-06 | –
308.15 K, x1 = 0.2584 | – | 784.4
308.15 K, x1 = 0.3235 | 1.33e-06 | –
308.15 K, x1 = 0.3433 | – | 786.5
308.15 K, x1 = 0.3894 | 1.4e-06 | –
308.15 K, x1 = 0.4395 | – | 788.6
308.15 K, x1 = 0.4505 | 1.47e-06 | –
308.15 K, x1 = 0.5495 | – | 790.7
308.15 K, x1 = 0.5605 | 1.65e-06 | –
308.15 K, x1 = 0.6567 | 1.86e-06 | –
308.15 K, x1 = 0.6765 | – | 792.9
308.15 K, x1 = 0.7416 | 2.1e-06 | –
308.15 K, x1 = 0.817 | 2.37e-06 | –
308.15 K, x1 = 0.8247 | – | 795
308.15 K, x1 = 0.8844 | 2.66e-06 | –
308.15 K, x1 = 0.9451 | 2.98e-06 | –
308.15 K, x1 = 1 | 3.33e-06 | 797.1
313.15 K, x1 = 0.0268 | – | 773.2
313.15 K, x1 = 0.0549 | – | 774.2
313.15 K, x1 = 0.0845 | – | 775.2
313.15 K, x1 = 0.0915 | 1.07e-06 | –
313.15 K, x1 = 0.1156 | – | 776.2
313.15 K, x1 = 0.1484 | – | 777.2
313.15 K, x1 = 0.1753 | 1.12e-06 | –
313.15 K, x1 = 0.183 | – | 778.2
313.15 K, x1 = 0.2524 | 1.17e-06 | –
313.15 K, x1 = 0.2584 | – | 780.3
313.15 K, x1 = 0.3235 | 1.22e-06 | –
313.15 K, x1 = 0.3433 | – | 782.4
313.15 K, x1 = 0.3894 | 1.28e-06 | –
313.15 K, x1 = 0.4395 | – | 784.6
313.15 K, x1 = 0.4505 | 1.35e-06 | –
313.15 K, x1 = 0.5495 | – | 786.7
313.15 K, x1 = 0.5605 | 1.51e-06 | –
313.15 K, x1 = 0.6567 | 1.69e-06 | –
313.15 K, x1 = 0.6765 | – | 788.9
313.15 K, x1 = 0.7416 | 1.9e-06 | –
313.15 K, x1 = 0.817 | 2.13e-06 | –
313.15 K, x1 = 0.8247 | – | 791
313.15 K, x1 = 0.8844 | 2.38e-06 | –
313.15 K, x1 = 0.9451 | 2.66e-06 | –
313.15 K, x1 = 1 | 2.94e-06 | 793.2
318.15 K, x1 = 0.0268 | – | 769
318.15 K, x1 = 0.0549 | – | 770
318.15 K, x1 = 0.0845 | – | 771
318.15 K, x1 = 0.0915 | 9.8e-07 | –
318.15 K, x1 = 0.1156 | – | 772
318.15 K, x1 = 0.1484 | – | 773.1
318.15 K, x1 = 0.1753 | 1.03e-06 | –
318.15 K, x1 = 0.183 | – | 774.1
318.15 K, x1 = 0.2524 | 1.07e-06 | –
318.15 K, x1 = 0.2584 | – | 776.3
318.15 K, x1 = 0.3235 | 1.12e-06 | –
318.15 K, x1 = 0.3433 | – | 778.4
318.15 K, x1 = 0.3894 | 1.17e-06 | –
318.15 K, x1 = 0.4395 | – | 780.6
318.15 K, x1 = 0.4505 | 1.23e-06 | –
318.15 K, x1 = 0.5495 | – | 782.8
318.15 K, x1 = 0.5605 | 1.37e-06 | –
318.15 K, x1 = 0.6567 | 1.54e-06 | –
318.15 K, x1 = 0.6765 | – | 785.1
318.15 K, x1 = 0.7416 | 1.72e-06 | –
318.15 K, x1 = 0.817 | 1.92e-06 | –
318.15 K, x1 = 0.8247 | – | 787.3
318.15 K, x1 = 0.8844 | 2.13e-06 | –
318.15 K, x1 = 0.9451 | 2.36e-06 | –
318.15 K, x1 = 1 | 2.59e-06 | 789.5
323.15 K, x1 = 0.0268 | – | 764.6
323.15 K, x1 = 0.0549 | – | 765.7
323.15 K, x1 = 0.0845 | – | 766.7
323.15 K, x1 = 0.0915 | 8.72e-07 | –
323.15 K, x1 = 0.1156 | – | 767.8
323.15 K, x1 = 0.1484 | – | 768.9
323.15 K, x1 = 0.1753 | 9.13e-07 | –
323.15 K, x1 = 0.183 | – | 769.9
323.15 K, x1 = 0.2524 | 9.53e-07 | –
323.15 K, x1 = 0.2584 | – | 772.1
323.15 K, x1 = 0.3235 | 9.96e-07 | –
323.15 K, x1 = 0.3433 | – | 774.3
323.15 K, x1 = 0.3894 | 1.05e-06 | –
323.15 K, x1 = 0.4395 | – | 776.6
323.15 K, x1 = 0.4505 | 1.1e-06 | –
323.15 K, x1 = 0.5495 | – | 778.9
323.15 K, x1 = 0.5605 | 1.23e-06 | –
323.15 K, x1 = 0.6567 | 1.39e-06 | –
323.15 K, x1 = 0.6765 | – | 781.2
323.15 K, x1 = 0.7416 | 1.55e-06 | –
323.15 K, x1 = 0.817 | 1.72e-06 | –
323.15 K, x1 = 0.8247 | – | 783.4
323.15 K, x1 = 0.8844 | 1.9e-06 | –
323.15 K, x1 = 0.9451 | 2.09e-06 | –
323.15 K, x1 = 1 | 2.29e-06 | 785.7
